Data published in PubChem BioAssay AID248 (DTP/NCI, 2004).
Toxic doses and inconclusive results are not listed. No stated cut-off is given here; in the data, active means T/C of 150% or more; inactive means T/C below 125%.

Test system: L1210 leukemia ip in BDF1 mice, survival T/C
Assay: NCI In Vivo Anticancer Drug Screen. Data for tumor model L1210 Leukemia (intraperitoneal) in B6D2F1 (BDF1) mice
Conditions: endpoint: mean survival time, higher = longer survival
Summary of the method: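 Each compound was tested against a transplantable tumor grown in mice. The endpoint was survival, with treated animals benchmarked against vehicle controls as a simple ratio.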

[1] = dose: 5.0 mg/kg/injection, schedule: Q01DX009 (ip), vehicle: saline
[2] = dose: 10.0 mg/kg/injection, schedule: Q01DX001 (ip), vehicle: saline
[3] = dose: 20.0 mg/kg/injection, schedule: Q01DX001 (ip), vehicle: saline
[4] = dose: 40.0 mg/kg/injection, schedule: Q01DX001 (ip), vehicle: saline
[5] = dose: 100.0 mg/kg/injection, schedule: Q04DX003 (ip), vehicle: saline with Tween-80
[6] = dose: 200.0 mg/kg/injection, schedule: Q04DX003 (ip), vehicle: saline with Tween-80
[7] = dose: 400.0 mg/kg/injection, schedule: Q04DX003 (ip), vehicle: saline with Tween-80
[8] = dose: 100.0 mg/kg/injection, schedule: Q04DX003 (ip), vehicle: saline
[9] = dose: 200.0 mg/kg/injection, schedule: Q04DX003 (ip), vehicle: saline
[10] = dose: 100.0 mg/kg/injection, schedule: Q01DX001 (ip), vehicle: saline
[11] = dose: 200.0 mg/kg/injection, schedule: Q01DX001 (ip), vehicle: saline
[12] = dose: 100.0 mg/kg/injection, schedule: Q04DX003 (ip), vehicle: Klucel (hydroxypropylcellulose) (HPC)
[13] = dose: 25.0 mg/kg/injection, schedule: Q01DX009 (ip), vehicle: Klucel (hydroxypropylcellulose) (HPC)
[14] = dose: 50.0 mg/kg/injection, schedule: Q01DX009 (ip), vehicle: Klucel (hydroxypropylcellulose) (HPC)
[15] = dose: 100.0 mg/kg/injection, schedule: Q01DX009 (ip), vehicle: Klucel (hydroxypropylcellulose) (HPC)
[16] = dose: 200.0 mg/kg/injection, schedule: Q01DX009 (ip), vehicle: Klucel (hydroxypropylcellulose) (HPC)
[17] = dose: 400.0 mg/kg/injection, schedule: Q01DX009 (ip), vehicle: Klucel (hydroxypropylcellulose) (HPC)

Measured: T/C

CCCCCCCCCC[n+]1cccc(C#N)c1
inactive: [1] 109 % of control | [2] 100 % of control | dose: 10.0 mg/kg/injection, schedule: Q01DX009 (ip), vehicle: saline 98 % of control | dose: 10.0 mg/kg/injection, schedule: Q04DX003 (ip), vehicle: saline 98 % of control | [3] 95 % of control | dose: 20.0 mg/kg/injection, schedule: Q01DX009 (ip), vehicle: saline 93 % of control | dose: 20.0 mg/kg/injection, schedule: Q04DX003 (ip), vehicle: saline 93 % of control | [4] 93 % of control | dose: 40.0 mg/kg/injection, schedule: Q04DX003 (ip), vehicle: saline 94 % of control

COC1=C(OC)C(=O)C(Sc2ccc3ccccc3c2)=CC1=O
inactive: dose: 6.25 mg/kg/injection, schedule: Q01DX009 (ip), vehicle: saline with Tween-80 100 % of control | dose: 12.5 mg/kg/injection, schedule: Q01DX009 (ip), vehicle: saline with Tween-80 94 % of control | dose: 25.0 mg/kg/injection, schedule: Q01DX009 (ip), vehicle: saline with Tween-80 100 % of control | dose: 50.0 mg/kg/injection, schedule: Q01DX009 (ip), vehicle: saline with Tween-80 96 % of control | dose: 100.0 mg/kg/injection, schedule: Q01DX009 (ip), vehicle: saline with Tween-80 94 % of control

COc1ccc(C2C=CC(c3ccccc3)C(c3ccccc3)C2[N+](=O)[O-])cc1OC (configuration not stated)
inactive: [5] 96 % of control | [6] 94 % of control | [7] 104 % of control

CN1CC(C)(C)C(=O)c2ccccc21
inactive: dose: 100.0 mg/kg/injection, schedule: Q04DX002 (ip), vehicle: other 95 % of control | dose: 200.0 mg/kg/injection, schedule: Q04DX002 (ip), vehicle: other 103 % of control | dose: 400.0 mg/kg/injection, schedule: Q04DX002 (ip), vehicle: other 103 % of control

FC(F)(F)C(F)(Cl)C(Cl)(Cl)C(F)(F)F (configuration not stated)
inactive: dose: 100.0 mg/kg/injection, schedule: Q01DX009 (ip), vehicle: saline 97 % of control | [8] 100 % of control | dose: 200.0 mg/kg/injection, schedule: Q01DX009 (ip), vehicle: saline 97 % of control | [9] 101 % of control | dose: 400.0 mg/kg/injection, schedule: Q01DX009 (ip), vehicle: saline 97 % of control | dose: 400.0 mg/kg/injection, schedule: Q04DX003 (ip), vehicle: saline 90 % of control

Nc1cc(N)c(O)c(N)c1
inactive: dose: 0.5 mg/kg/injection, schedule: Q04DX003 (ip), vehicle: saline 103 % of control | dose: 1.0 mg/kg/injection, schedule: Q04DX003 (ip), vehicle: saline 105 % of control | dose: 1.25 mg/kg/injection, schedule: Q01DX009 (ip), vehicle: saline 95 % of control | dose: 2.0 mg/kg/injection, schedule: Q04DX003 (ip), vehicle: saline 111 % of control | dose: 2.5 mg/kg/injection, schedule: Q01DX009 (ip), vehicle: saline 90 % of control | [1] 97 % of control

CCOC(=O)C1(C(=O)OCC)CCC1
inactive: [10] 103 % of control | [11] 94 % of control

O=C(N/N=C/C=C\c1ccccc1)C(=O)N/N=C/C=C/c1ccccc1
inactive: [12] 94 % of control | dose: 200.0 mg/kg/injection, schedule: Q04DX003 (ip), vehicle: Klucel (hydroxypropylcellulose) (HPC) 89 % of control | dose: 400.0 mg/kg/injection, schedule: Q04DX003 (ip), vehicle: Klucel (hydroxypropylcellulose) (HPC) 94 % of control

CC(C)(C)C(=O)CC(=O)C(C)(C)C.CC(C)(C)C(=O)CC(=O)C(C)(C)C.CC(C)(C)C(=O)CC(=O)C(C)(C)C.[Ho]
inactive: [5] 94 % of control | [6] 105 % of control | [7] 95 % of control

CCNC(=O)c1csnn1
inactive: dose: 75.0 mg/kg/injection, schedule: Q01DX001 (ip), vehicle: other 98 % of control | dose: 150.0 mg/kg/injection, schedule: Q01DX001 (ip), vehicle: other 101 % of control | dose: 300.0 mg/kg/injection, schedule: Q01DX001 (ip), vehicle: other 104 % of control

Nc1cc(N)ncn1
inactive: [13] 101 % of control | [14] 98 % of control | [15] 102 % of control

OC1CC2CC1C=C2c1ccccc1 (configuration not stated)
inactive: [5] 102 % of control | [6] 86 % of control | [7] 91 % of control

CCCCCCC(O)C/C=C/CCCCCCCC(=O)O (configuration not stated)
inactive: dose: 100.0 mg/kg/injection, schedule: Q04DX002 (ip), vehicle: Klucel (hydroxypropylcellulose) (HPC) 96 % of control | dose: 200.0 mg/kg/injection, schedule: Q04DX002 (ip), vehicle: Klucel (hydroxypropylcellulose) (HPC) 93 % of control | dose: 400.0 mg/kg/injection, schedule: Q04DX002 (ip), vehicle: Klucel (hydroxypropylcellulose) (HPC) 86 % of control

[Cu+2].[NH-]C(CC(=O)O)C(=O)O.[NH-]C(CC(=O)O)C(=O)O (configuration not stated)
inactive: dose: 5.0 mg/kg/injection, schedule: Q01DX001 (ip), vehicle: saline 96 % of control | [2] 96 % of control | [3] 91 % of control | [4] 96 % of control

CC(=O)Oc1cc2c(cc1N=NN(C)C)[C@H]1CC[C@]3(C)[C@@H](O)CC[C@H]3[C@@H]1CC2
inactive: [14] 95 % of control

CC(=O)c1ccccc1Br
inactive: [16] 100 % of control | [17] 97 % of control

O=C(c1ccc(-c2ccccc2)cc1)C(Br)CCBr (configuration not stated)
inactive: [5] 106 % of control | [6] 93 % of control

NC(=O)NCC(=O)O
inactive: dose: 50.0 mg/kg/injection, schedule: Q01DX001 (ip), vehicle: Klucel (hydroxypropylcellulose) (HPC) 96 % of control | [14] 91 % of control | dose: 100.0 mg/kg/injection, schedule: Q01DX001 (ip), vehicle: Klucel (hydroxypropylcellulose) (HPC) 100 % of control | [15] 100 % of control | dose: 200.0 mg/kg/injection, schedule: Q01DX001 (ip), vehicle: Klucel (hydroxypropylcellulose) (HPC) 100 % of control | [16] 96 % of control | dose: 400.0 mg/kg/injection, schedule: Q01DX001 (ip), vehicle: Klucel (hydroxypropylcellulose) (HPC) 94 % of control

C1=CC23C4CCC2C2C4C4C(=C1)C3C2N1CCCCC41 (configuration not stated)
inactive: dose: 12.5 mg/kg/injection, schedule: Q04DX003 (ip), vehicle: Klucel (hydroxypropylcellulose) (HPC) 98 % of control | [13] 105 % of control | dose: 25.0 mg/kg/injection, schedule: Q04DX003 (ip), vehicle: Klucel (hydroxypropylcellulose) (HPC) 104 % of control | [14] 103 % of control | dose: 50.0 mg/kg/injection, schedule: Q04DX003 (ip), vehicle: Klucel (hydroxypropylcellulose) (HPC) 96 % of control | [12] 107 % of control

COC(=O)C1=NN(c2ccccc2)CC1
inactive: [10] 98 % of control | dose: 100.0 mg/kg/injection, schedule: Q04DX003 (ip), vehicle: other 88 % of control | [11] 106 % of control | dose: 200.0 mg/kg/injection, schedule: Q04DX003 (ip), vehicle: other 94 % of control | dose: 400.0 mg/kg/injection, schedule: Q01DX001 (ip), vehicle: saline 90 % of control | dose: 400.0 mg/kg/injection, schedule: Q04DX003 (ip), vehicle: other 94 % of control

Nc1ccc2c(c1)C(=O)c1c(C(=O)O)cccc1-2
inactive: dose: 75.0 mg/kg/injection, schedule: Q01DX001 (ip), vehicle: carboxymethylcellulose (CMC) 108 % of control | dose: 150.0 mg/kg/injection, schedule: Q01DX001 (ip), vehicle: carboxymethylcellulose (CMC) 101 % of control

Cn1cnc2c(C(F)(F)F)nc(N)nc21
inactive: [8] 94 % of control | [9] 102 % of control

C=CCN1CCC(C(=O)OC)(c2ccccc2)CC1
inactive: [8] 96 % of control | [9] 103 % of control

O=[N+]([O-])c1ccc(NC(=S)Nc2cccc(C(F)(F)F)c2)cc1
inactive: [15] 90 % of control | [16] 91 % of control | [17] 100 % of control

CO[C](=O)[Hg][c]1ccc(N=Cc2ccc(N(C)C)cc2Cl)cc1
inactive: dose: 1.56 mg/kg/injection, schedule: Q01DX001 (ip), vehicle: saline with Tween-80 99 % of control | dose: 3.13 mg/kg/injection, schedule: Q01DX001 (ip), vehicle: saline with Tween-80 103 % of control | dose: 6.25 mg/kg/injection, schedule: Q01DX001 (ip), vehicle: saline with Tween-80 89 % of control
